Test results from patent publication US9096543B2, “Nuclear transport modulators and uses thereof” (Karyopharm Therapeutics Inc., priority 2012, dated 2015).
“Also recorded” adds a separate entry of the source.

Experiments:
CCI brain injury = assay: Brain injury assessment after CCI (visual inspection, NeuN cell density, immunofluorescence); format: in vivo, rats; settings: for cell-to-gray matter (CG) area coefficient, compared to sham: NeuN labeling
Description: Quantitative measures of cell density were collected from anti-NeuN immunolabeled subsections from approximately 2-3 mm anterior to bregma. Regions of interest (ROIs) were drawn (blind to experimental condition) around Layers IV-VI in the cortical region adjacent to the injury site in CCI-treated animals or in the equivalent zone (dorsal cortex) in sham animals. An ROI of similar area was also evaluated in a ventral cortical region of the same section. Cell identification was performed using the cell counting module of Keyence BZ-II Analyzer software. […] The CCI-induced reduction in CG coefficient was mitigated by treatment with Compound 1 in the ventral cortex (−3% compared to sham; p=0.09). Although the effect of Compound 1 versus vehicle treatment in the ventral cortex is not statistically significant, it is anticipated that this effect would breach statistical significance in a larger study. No effect of Compound 1 was detected in the dorsal cortical region (−32% compared to sham) immediately adjacent to the injury site. The difference in the observed effect of Compound 1 on the ventral region versus the dorsal region may be a threshold effect related to the degree of injury, which was inversely related to the distance from the injury site. Thus, the damage to the dorsal cortical region could be too severe to be rescued by Compound 1 under these conditions.
Immunofluorescence was performed to evaluate the impact of TBI on several pathways of immune response, and to determine if Compound 1 might be mediating its neuroprotective effects via one or more of those pathways. Semi-quantitative measures of secondary injury responses were examined using immunofluorescent labeling for anti-Rat IgG (an indicator of blood-brain barrier (BBB) permeability), and TNFα (an indicator of neural inflammation). All markers were imaged at 20× magnification in the areas of the cortex surrounding the injury site in adjacent subsections within 300 μm to those used for the NeuN labeling assessments. For each label, a target ROI was outlined within Layers IV-VI adjacent to the injury site (or an equivalent region of dorsal cortex for sham animals), and a reference ROI was collected from the same laminae in ventral cortex. Normalized fluorescence intensity was assessed in each of the two ROIs. For all labels, the ventral cortex reference site was determined not to be different between groups (p>0.5); therefore, the percent target to reference value (IF) was determined.

A549 xenograft tumors = assay: A549 lung carcinoma xenograft model; format: in vivo, CB-17 SCID mice
Description: The A549 cell line was derived from explant culture of alveolar carcinoma tissue from a person. The cells were grown in Ham's F12-K tissue culture media with 10% fetal calf serum and 1% penicillin/streptomycin. Cells were routinely trypsinized and passaged 1:10. Thirty-two (32) female CB-17 SCID mice (Charles River Labs strain code 236), aged 5 to 6 weeks were used with a mean pre-treatment body weight of 16.3 grams. Mice were divided into four (4) groups of eight (8) prior to the initiation of treatment based on tumor volume. On the day of implantation, cells were washed in PBS, trypsinized and resuspended in complete media to a density of 2×10^7 cells/mL prior to being mixed with an equal volume of Matrigel. This mixture was then inoculated subcutaneously into mice in a volume of 0.1 mL using a 23 G needle.
Animal weights and condition were recorded daily, and tumors were measured on Mondays, Wednesdays and Fridays with micro-calipers, and tumor volume was calculated as (length×width×width)/2.
Animals with weight loss of more than 20% of their starting weight were euthanized. Mice with weight loss of more than 15% of their starting weight were not treated again until weight loss recovered to less than 5% of their starting weight. Any animals with a tumor volume of more than 1500 mm^3 were euthanized.
Dosing solutions were prepared fresh on each day of dosing. Compound 2 was supplied as a lyophilized powder containing 69.61% Compound 2 with the balance made up of Pluronic F-68 and PVP K29/32. This was prepared by dissolving the lyophilized powder in sterile water. Cisplatin was dissolved at 5 mg/mL in DMSO and diluted 1:10 in sterile water for injection. All test articles were administered in a volume of 0.1 mL/10 g body weight.
Statistical differences between treatment groups were determined using Mann-Whitney Rank Sum or ANOVA tests with a critical value of 0.05.

[1] = test system: anti-collagen antibody induced arthritis; assay: Anti-collagen antibody induced mouse model of rheumatoid arthritis (CAIA); format: in vivo, Balb/c mice
Description: Twenty-four (24) male Balb/c mice, aged 6 to 8 weeks were used. […] On study Day 0 (study commencement), all mice were subjected to a 2 mg intravenous injection of ArthritoMAb™ antibody cocktail (MD Biosciences #S1203001) followed by an intraperitoneal injection of LPS (100 μg/mouse) on study Day 3. […] Treatments were administered once daily on days 4, 6, 8 and 10 for all groups, except where dosing vacations applied. If an animal's weight dropped below 87% of its day 0 starting weight, the animal was not dosed until it gained weight equivalent to 90% or more of day 0 weight.
Arthritis development, clinical signs and body weights were monitored in all mice on study days 0, 3-8, 10 and 12. Observations included changes in skin, fur, eyes, mucous membranes, occurrence of secretions and excretions (e.g., diarrhea) and autonomic activity (e.g., lacrimation, salivation, piloerection, pupil size, unusual respiratory pattern). All paws (front left and right, and rear left and right) of each animal were examined for signs of arthritogenic responses prior to arthritis induction and test item or control item administration on study Day 0 and subsequently on study Days 3-8, 10 and 12 (study termination). A rthritis reactions were scored and recorded according to a 0-4 scale in ascending order of severity, as shown Table 5 below. Paw thickness was also measured using a dial caliper (Kroeplin, Munich, Germany).
The dose administered was calculated based on the assumption that the animals weighed, on average, 20 g. […] Vehicle for the vehicle control group was prepared by dissolving 0.6 g Pluronic and 0.6 g PVP in 100 mL distilled deionised water. The MAb stock solution (10 mg/mL) was supplied by MD Biosciences, Division of Morwell Diagnostics GmbH. LPS was diluted with PBS to achieve the appropriate concentration. Thorough vortexing was required just prior to its injection. […] A fixed volume of 200 μL was administered to each mouse.
Evaluation was primarily based on the mean values for arthritis scoring and paw thickness measurements. […]

Row | Compound | qualitative visual inspection of whole brains (damage to dorsal-medial cortical tissue) (CCI brain injury; CCI + Compound 1 6 mg/kg) | cell-to-gray matter (CG) area coefficient, compared to sham (CCI brain injury; dorsal cortical region adjacent to injury site, CCI control −45%) | secondary injury responses (TNFα immunopositive cells, anti-Rat IgG immunofluorescence) (CCI brain injury; tissue surrounding the injury site) | cell-to-gray matter (CG) area coefficient, compared to sham (CCI brain injury; ventral cortex, p=0.09 vs vehicle, CCI control −30%) | tumor volume AUC compared to vehicle control (one-way ANOVA) (A549 xenograft tumors; Compound 2 10 mg/kg PO, p=0.0005, 10 mg/kg) | antitumor effect (A549 xenograft tumors; Compound 2 orally, 5 and 10 mg/kg) | anti-arthritic activity ([1]; 7.5 mg/kg or 4 mg/kg orally) | days on which rear paw arthritis score was significantly reduced compared to vehicle ([1]; 7.5 mg/kg or 4 mg/kg orally) | days on which total arthritis score was significantly reduced compared to vehicle ([1]; 7.5 mg/kg orally, days 4, 6, 8, 10)
1 | CC(C)(C)C(=O)NNC(=O)/C=C\n1cnc(-c2cc(C(F)(F)F)cc(C(F)(F)F)c2)n1 [Compound 1, (Z)-3-(3-(3,5-bis(trifluoromethyl)phenyl)-1H-1,2,4-triazol-1-yl)-N′-pivaloylacrylohydrazide] | damage ranging from moderate to minimal | −32% | largely absent; also recorded: reduces secondary injury responses | −3% |  |  |  |  | 
2 | O=C(/C=C\n1cnc(-c2cc(C(F)(F)F)cc(C(F)(F)F)c2)n1)NNC(=O)CN1CCOCC1 [Compound 2, (Z)-3-(3-(3,5-bis(trifluoromethyl)phenyl)-1H-1,2,4-triazol-1-yl)-N′-(2-morpholinoacetyl)acrylohydrazide] |  |  |  |  | statistically significant difference | had an antitumor effect at both 5 mg/kg and 10 mg/kg doses in a dose dependent manner | exhibited significant anti-arthritic activity | 5-12 | 5-12
